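Where inhibition never reached the appropriate level, the endpoint shown equals the highest concentration tested. Otherwise, values were interpolated linearly from a five-concentration, 48-hour dose response in 96-well plates. At the TGI there is no net growth.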

The first assay concerns NCI/ADR-RES ovarian. As to the kind of experiment: NCI-60 cell line screen, 48 h.
For the compound `C[n+]1ccc(/C2=C3\C=CC(=N3)/C(c3cc[n+](C)cc3)=c3/cc/c([nH]3)=C(\c3cc[n+](C)cc3)C3=N/C(=C(/c4cc[n+](C)cc4)C4C=CC2N4)C=C3)cc1`, the TGI is > 100 µM.
`CCCCn1c(N)c(-c2nc3ccccc3o2)sc1=S` displayed a TGI of 46.8 µM.

The subject of another assay is LOX IMVI melanoma. As to the kind of experiment: NCI-60 cell line screen, 48 h.
For `Cn1c(=O)c2c(nc3n2CC(=O)N3CCCCl)n(C)c1=O`, the TGI was > 100 µM.
`C[n+]1ccc(/C2=C3\C=CC(=N3)/C(c3cc[n+](C)cc3)=c3/cc/c([nH]3)=C(\c3cc[n+](C)cc3)C3=N/C(=C(/c4cc[n+](C)cc4)C4C=CC2N4)C=C3)cc1`: the TGI was > 100 µM.

In the next assay the test system is OVCAR-4 ovarian. As to the kind of experiment: NCI-60 cell line screen, 48 h.
For the compound `Cn1c(=O)c2c(nc3n2CC(=O)N3CCCCl)n(C)c1=O`, the TGI is > 100 µM.
In the case of `C[n+]1ccc(/C2=C3\C=CC(=N3)/C(c3cc[n+](C)cc3)=c3/cc/c([nH]3)=C(\c3cc[n+](C)cc3)C3=N/C(=C(/c4cc[n+](C)cc4)C4C=CC2N4)C=C3)cc1`, the TGI was > 100 µM.
Take `CCCCn1c(N)c(-c2nc3ccccc3o2)sc1=S`: the TGI turned out to be 19.9 µM.

The test system of the next assay is T-47D breast. Briefly: NCI-60 cell line screen, 48 h.
As for `O=[N+]([O-])c1cccc2nnccc12`, the TGI was > 100 µM.
Turning to `Cn1c(=O)c2c(nc3n2CC(=O)N3CCCCl)n(C)c1=O`, the TGI is > 100 µM.
In the case of `C[n+]1ccc(/C2=C3\C=CC(=N3)/C(c3cc[n+](C)cc3)=c3/cc/c([nH]3)=C(\c3cc[n+](C)cc3)C3=N/C(=C(/c4cc[n+](C)cc4)C4C=CC2N4)C=C3)cc1`, the TGI is > 100 µM.
`CCCCn1c(N)c(-c2nc3ccccc3o2)sc1=S` registered a TGI of 47.9 µM.

Another assay has as its system MOLT-4 leukemia. As to the kind of experiment: NCI-60 cell line screen, 48 h.
On to `O=[N+]([O-])c1cccc2nnccc12`, for which the TGI is > 100 µM.
On to `Cn1c(=O)c2c(nc3n2CC(=O)N3CCCCl)n(C)c1=O`, for which the TGI is > 100 µM.
Consider `C[n+]1ccc(/C2=C3\C=CC(=N3)/C(c3cc[n+](C)cc3)=c3/cc/c([nH]3)=C(\c3cc[n+](C)cc3)C3=N/C(=C(/c4cc[n+](C)cc4)C4C=CC2N4)C=C3)cc1`, for which the TGI is > 100 µM.
As to `CCCCn1c(N)c(-c2nc3ccccc3o2)sc1=S`, the TGI was > 100 µM.

The subject of the next assay is M14 melanoma. As to the kind of experiment: NCI-60 cell line screen, 48 h.
Turning to `O=[N+]([O-])c1cccc2nnccc12`, the TGI is > 100 µM.
For the compound `Cn1c(=O)c2c(nc3n2CC(=O)N3CCCCl)n(C)c1=O`, the TGI was > 100 µM.
As to `C[n+]1ccc(/C2=C3\C=CC(=N3)/C(c3cc[n+](C)cc3)=c3/cc/c([nH]3)=C(\c3cc[n+](C)cc3)C3=N/C(=C(/c4cc[n+](C)cc4)C4C=CC2N4)C=C3)cc1`, the TGI is > 100 µM.
Consider `CCCCn1c(N)c(-c2nc3ccccc3o2)sc1=S`, for which the TGI is > 100 µM.

A further assay concerns HOP-62 NSCLC. As to the kind of experiment: NCI-60 cell line screen, 48 h.
Regarding `Cn1c(=O)c2c(nc3n2CC(=O)N3CCCCl)n(C)c1=O`, the TGI was > 100 µM.
On the same count and under the same terms, the value for `C[n+]1ccc(/C2=C3\C=CC(=N3)/C(c3cc[n+](C)cc3)=c3/cc/c([nH]3)=C(\c3cc[n+](C)cc3)C3=N/C(=C(/c4cc[n+](C)cc4)C4C=CC2N4)C=C3)cc1` was > 100 µM.
`CCCCn1c(N)c(-c2nc3ccccc3o2)sc1=S` came in with a TGI of 39.9 µM.

The subject of a further assay is MDA-MB-435. Briefly: NCI-60 cell line screen, 48 h.
In the case of `O=[N+]([O-])c1cccc2nnccc12`, the TGI was 32.5 µM.
`Cn1c(=O)c2c(nc3n2CC(=O)N3CCCCl)n(C)c1=O`: the TGI is > 100 µM.
For the compound `C[n+]1ccc(/C2=C3\C=CC(=N3)/C(c3cc[n+](C)cc3)=c3/cc/c([nH]3)=C(\c3cc[n+](C)cc3)C3=N/C(=C(/c4cc[n+](C)cc4)C4C=CC2N4)C=C3)cc1`, the TGI was > 100 µM.
In turn, `CCCCn1c(N)c(-c2nc3ccccc3o2)sc1=S` returned a TGI of 38.5 µM.

A further assay deals with HT29 colon. As to the kind of experiment: NCI-60 cell line screen, 48 h.
With `O=[N+]([O-])c1cccc2nnccc12`, the TGI was 53.6 µM.
Regarding `Cn1c(=O)c2c(nc3n2CC(=O)N3CCCCl)n(C)c1=O`, the TGI was > 100 µM.
The same measure, in the same setting: the figure for `C[n+]1ccc(/C2=C3\C=CC(=N3)/C(c3cc[n+](C)cc3)=c3/cc/c([nH]3)=C(\c3cc[n+](C)cc3)C3=N/C(=C(/c4cc[n+](C)cc4)C4C=CC2N4)C=C3)cc1` is > 100 µM; for `CCCCn1c(N)c(-c2nc3ccccc3o2)sc1=S` it is 78 µM.

In a further assay the test system is UO-31 renal. As to the kind of experiment: NCI-60 cell line screen, 48 h.
Consider `O=[N+]([O-])c1cccc2nnccc12`, for which the TGI worked out at 95.4 µM.
On the same count and under the same terms, the value for `Cn1c(=O)c2c(nc3n2CC(=O)N3CCCCl)n(C)c1=O` was > 100 µM; that for `C[n+]1ccc(/C2=C3\C=CC(=N3)/C(c3cc[n+](C)cc3)=c3/cc/c([nH]3)=C(\c3cc[n+](C)cc3)C3=N/C(=C(/c4cc[n+](C)cc4)C4C=CC2N4)C=C3)cc1` was > 100 µM.
Consider `CCCCn1c(N)c(-c2nc3ccccc3o2)sc1=S`, for which the TGI came out at 39 µM.

A further assay deals with SNB-75 CNS. Briefly: NCI-60 cell line screen, 48 h.
For the compound `O=[N+]([O-])c1cccc2nnccc12`, the TGI is > 100 µM.
Regarding `Cn1c(=O)c2c(nc3n2CC(=O)N3CCCCl)n(C)c1=O`, the TGI was > 100 µM.
With `C[n+]1ccc(/C2=C3\C=CC(=N3)/C(c3cc[n+](C)cc3)=c3/cc/c([nH]3)=C(\c3cc[n+](C)cc3)C3=N/C(=C(/c4cc[n+](C)cc4)C4C=CC2N4)C=C3)cc1`, the TGI was > 100 µM.

The test system of another assay is SNB-19 CNS. As to the kind of experiment: NCI-60 cell line screen, 48 h.
`O=[N+]([O-])c1cccc2nnccc12`: the TGI was 87.1 µM.
`Cn1c(=O)c2c(nc3n2CC(=O)N3CCCCl)n(C)c1=O`: the TGI was > 100 µM.
Take `C[n+]1ccc(/C2=C3\C=CC(=N3)/C(c3cc[n+](C)cc3)=c3/cc/c([nH]3)=C(\c3cc[n+](C)cc3)C3=N/C(=C(/c4cc[n+](C)cc4)C4C=CC2N4)C=C3)cc1`: the TGI was > 100 µM.
Regarding `CCCCn1c(N)c(-c2nc3ccccc3o2)sc1=S`, the TGI was > 100 µM.

In another assay the test system is RPMI-8226 leukemia. Briefly: NCI-60 cell line screen, 48 h.
Turning to `O=[N+]([O-])c1cccc2nnccc12`, the TGI is > 100 µM.
Consider `Cn1c(=O)c2c(nc3n2CC(=O)N3CCCCl)n(C)c1=O`, for which the TGI is > 100 µM.
Consider `C[n+]1ccc(/C2=C3\C=CC(=N3)/C(c3cc[n+](C)cc3)=c3/cc/c([nH]3)=C(\c3cc[n+](C)cc3)C3=N/C(=C(/c4cc[n+](C)cc4)C4C=CC2N4)C=C3)cc1`, for which the TGI was > 100 µM.
Compound `CCCCn1c(N)c(-c2nc3ccccc3o2)sc1=S` gave a TGI of 67.4 µM.

Another assay has as its system SF-268 CNS. As to the kind of experiment: NCI-60 cell line screen, 48 h.
Take `O=[N+]([O-])c1cccc2nnccc12`: the TGI is > 100 µM.
Same read-out and setting: the figure for `Cn1c(=O)c2c(nc3n2CC(=O)N3CCCCl)n(C)c1=O` is > 100 µM; for `C[n+]1ccc(/C2=C3\C=CC(=N3)/C(c3cc[n+](C)cc3)=c3/cc/c([nH]3)=C(\c3cc[n+](C)cc3)C3=N/C(=C(/c4cc[n+](C)cc4)C4C=CC2N4)C=C3)cc1` it is > 100 µM; for `CCCCn1c(N)c(-c2nc3ccccc3o2)sc1=S` it is 74.4 µM.

The test system of a further assay is HL-60(TB) leukemia. Briefly: NCI-60 cell line screen, 48 h.
Consider `O=[N+]([O-])c1cccc2nnccc12`, for which the TGI was found to be 14.4 µM.
Take `Cn1c(=O)c2c(nc3n2CC(=O)N3CCCCl)n(C)c1=O`: the TGI was > 100 µM.
The same measure, in the same setting: the figure for `C[n+]1ccc(/C2=C3\C=CC(=N3)/C(c3cc[n+](C)cc3)=c3/cc/c([nH]3)=C(\c3cc[n+](C)cc3)C3=N/C(=C(/c4cc[n+](C)cc4)C4C=CC2N4)C=C3)cc1` is > 100 µM; for `CCCCn1c(N)c(-c2nc3ccccc3o2)sc1=S` it is > 100 µM.

The test system of another assay is ACHN renal. Briefly: NCI-60 cell line screen, 48 h.
As for `O=[N+]([O-])c1cccc2nnccc12`, the TGI worked out at 30 µM.

Values taken from PubChem BioAssay (NCI).
